In ChEMBL document CHEMBL1201862, “PubChem BioAssay data set” (2004):
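Each compound was tested at five concentrations against cells in 96-well plates for 48 hours. GI50 is the concentration that inhibits growth by half.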 Activity calls are given as the source filed them. Cut-off read from the data, not from the text of the source: active = GI50 up to about 1.1 µM and inactive = higher.

Experiments:
Test in all cases: NCI-60 cell line screen, 48 h
786-0 = tested on: 786-0
RPMI-8226 = tested on: RPMI-8226
SK-MEL-5 = tested on: SK-MEL-5
SW-620 = tested on: SW-620
SK-MEL-2 = tested on: SK-MEL-2
SNB-19 = tested on: SNB-19
SF-295 = tested on: SF-295
U-251 = tested on: U-251
CCRF-CEM = tested on: CCRF-CEM
SNB-75 = tested on: SNB-75
UO-31 = tested on: UO-31
M14 = tested on: M14
TK-10 = tested on: TK-10
RXF 393 = tested on: RXF 393
HL-60 = tested on: HL-60
CAKI-1 = tested on: CAKI-1
SR = tested on: SR

Measured: GI50

c1ccc2c(c1)Cc1c(Cc3csc4ccccc34)ccc3cccc-2c13
inactive: 786-0 > 100 µM | RPMI-8226 > 100 µM | SK-MEL-5 > 100 µM | SW-620 > 100 µM | SK-MEL-2 > 100 µM | SNB-19 > 100 µM | SF-295 > 100 µM | U-251 > 100 µM | CCRF-CEM > 100 µM | SNB-75 19.7 µM | UO-31 > 100 µM | M14 > 100 µM | TK-10 > 10 µM | RXF 393 > 100 µM | HL-60 > 100 µM

CN(CCCN1C(=O)c2cccc3cc([N+](=O)[O-])cc(c23)C1=O)CCN(C)CCCN1C(=O)c2cccc3cc([N+](=O)[O-])cc(c23)C1=O
inactive: 786-0 13.6 µM | RPMI-8226 2.23 µM | SK-MEL-5 17.4 µM | SW-620 2.48 µM | SK-MEL-2 13.3 µM | SNB-19 > 39.3 µM | SF-295 22.3 µM | U-251 15.2 µM | CCRF-CEM 6.34 µM | SNB-75 20.4 µM | M14 > 39.3 µM | CAKI-1 31.9 µM | TK-10 > 39.3 µM | RXF 393 33 µM | HL-60 19.6 µM

Cc1cccc(C(C)(C)C)c1NC(=O)CCc1n[nH]c(=S)o1
inactive: 786-0 > 100 µM | RPMI-8226 22.8 µM | SK-MEL-5 > 100 µM | SW-620 15.9 µM | SNB-19 > 100 µM | SF-295 > 100 µM | U-251 > 100 µM | CCRF-CEM > 100 µM | SNB-75 > 100 µM | UO-31 > 100 µM | M14 > 100 µM | CAKI-1 > 100 µM | TK-10 > 100 µM | HL-60 > 100 µM

O=C(Cc1nc2ccccc2s1)C(=O)Nc1ccc(Cl)cc1
inactive: 786-0 > 100 µM | RPMI-8226 > 100 µM | SK-MEL-5 > 100 µM | SW-620 > 100 µM | SK-MEL-2 > 100 µM | SNB-19 > 100 µM | SF-295 > 100 µM | U-251 > 100 µM | SNB-75 > 100 µM | UO-31 > 100 µM | M14 > 100 µM | CAKI-1 > 100 µM | TK-10 > 100 µM | HL-60 > 100 µM

COc1ccc(/C=C/c2cc(OC)c(OC(C)=O)c(OC)c2)cc1
inactive: 786-0 33.7 µM | RPMI-8226 31.8 µM | SK-MEL-2 37.2 µM | SNB-19 25.1 µM | U-251 17.5 µM | CCRF-CEM 30.8 µM | SNB-75 18.5 µM | UO-31 20.3 µM | M14 34.6 µM

Cc1cccc(NC(=O)CSc2nnc(Cc3ccccc3)o2)c1
inactive: 786-0 > 100 µM | SK-MEL-5 > 100 µM | SW-620 > 100 µM | SK-MEL-2 > 100 µM | SNB-19 > 100 µM | SF-295 > 100 µM | U-251 > 100 µM | CCRF-CEM > 100 µM | SNB-75 63.8 µM | UO-31 > 100 µM | M14 > 100 µM | CAKI-1 > 100 µM | TK-10 > 100 µM | RXF 393 > 100 µM | HL-60 > 100 µM

CCCc1n[nH]c(CCC(=O)N(Cc2ccccc2)Cc2ccccc2)c1CC
inactive: 786-0 > 100 µM | RPMI-8226 > 100 µM | SK-MEL-5 > 100 µM | SW-620 > 100 µM | SK-MEL-2 > 100 µM | SNB-19 > 100 µM | SF-295 > 100 µM | CCRF-CEM > 100 µM | SNB-75 > 100 µM | UO-31 > 100 µM | M14 > 100 µM | CAKI-1 > 100 µM | TK-10 > 100 µM | RXF 393 > 100 µM

CCOC(=O)C12CCCC1(O)N(NC(=O)OC(C)(C)C)C(C)=C2C(=O)OC (stereo unspecified)
inactive: 786-0 > 100 µM | RPMI-8226 > 100 µM | SW-620 > 100 µM | SK-MEL-2 > 100 µM | SNB-19 > 100 µM | SF-295 > 100 µM | U-251 > 100 µM | CCRF-CEM > 100 µM | UO-31 > 100 µM | M14 > 100 µM | CAKI-1 > 100 µM | TK-10 > 100 µM | HL-60 > 100 µM

CC1C=C(OC(=O)c2ccccc2)C(=O)C(n2cc(F)c(=O)[nH]c2=O)O1 (stereo unspecified)
inactive: 786-0 69.8 µM | RPMI-8226 23.9 µM | SK-MEL-5 91 µM | SW-620 > 100 µM | SK-MEL-2 79.3 µM | SNB-19 > 100 µM | SF-295 > 100 µM | U-251 97.3 µM | CCRF-CEM 45.1 µM | SNB-75 > 100 µM | UO-31 87.7 µM | M14 51.3 µM | CAKI-1 62.1 µM | TK-10 > 100 µM | HL-60 64.3 µM

NC(CCCCNCc1ccccc1O)C(=O)O (stereo unspecified)
inactive: 786-0 > 100 µM | RPMI-8226 > 100 µM | SK-MEL-5 > 100 µM | SW-620 > 100 µM | SK-MEL-2 > 100 µM | SNB-19 > 100 µM | SF-295 > 100 µM | U-251 > 100 µM | CCRF-CEM > 100 µM | SNB-75 93.5 µM | UO-31 > 100 µM | M14 > 100 µM | CAKI-1 > 100 µM | TK-10 > 100 µM | HL-60 > 100 µM

CCc1cccc(C)c1NC(=O)CCc1n[nH]c(=S)o1
inactive: 786-0 > 100 µM | RPMI-8226 21.6 µM | SK-MEL-5 > 100 µM | SW-620 13.3 µM | SNB-19 > 100 µM | SF-295 > 100 µM | U-251 > 100 µM | CCRF-CEM > 100 µM | SNB-75 > 100 µM | UO-31 > 100 µM | M14 > 100 µM | CAKI-1 > 100 µM | TK-10 > 100 µM | HL-60 > 100 µM

COc1ccc(NC(=O)CC2S/C(=N\c3ccccc3C)NC2=O)c([N+](=O)[O-])c1 (stereo unspecified)
inactive: 786-0 > 100 µM | RPMI-8226 > 100 µM | SR > 100 µM | SW-620 > 100 µM | SK-MEL-2 > 100 µM | SNB-19 > 100 µM | SF-295 > 100 µM | U-251 > 100 µM | SNB-75 > 100 µM | UO-31 > 100 µM | M14 > 100 µM | TK-10 > 100 µM | HL-60 > 100 µM

O=C1CCC(=O)N2CCCCN12
inactive: 786-0 > 100 µM | SK-MEL-5 > 100 µM | SW-620 > 100 µM | SK-MEL-2 > 100 µM | SNB-19 > 100 µM | SF-295 > 100 µM | U-251 > 100 µM | CCRF-CEM > 100 µM | SNB-75 > 100 µM | UO-31 > 100 µM | M14 > 100 µM | CAKI-1 > 100 µM | TK-10 > 100 µM | RXF 393 > 100 µM | HL-60 > 100 µM

O=c1c2cccnc2ncn1CCCN1CCOCC1
inactive: 786-0 > 100 µM | SR > 100 µM | SK-MEL-5 > 100 µM | SW-620 > 100 µM | SK-MEL-2 > 10 µM | SNB-19 > 100 µM | SF-295 > 100 µM | U-251 > 100 µM | CCRF-CEM > 100 µM | SNB-75 > 100 µM | UO-31 > 100 µM | M14 > 100 µM | CAKI-1 > 100 µM | TK-10 > 100 µM | RXF 393 > 100 µM
